What was measured:
P. aeruginosa = assay: Bactericidal test: CFU count after incubation in PBS buffer; type: cell-based, Pseudomonas aeruginosa; conditions: for P. aeruginosa count (UFC/mL ± 10) As a function of treatment time: 37° C., Example 6; for P. aeruginosa count (UFC/mL ± 10) As a function of treatment time / Colony count (UFC/mL ± 10): control 2,000,000; for Colony count (UFC/mL ± 10) Pseudomonas: Example 9; for Colony count (UFC/mL ± 10) P. aeruginosa: 4-hour at 37° C., control 3,000,000, Example 15; for Colony count (UFC/mL ± 10): 4-hour contact at 37° C., Example 8; for concentration at which the number of CFU/mL decreases to 1000: FIG. 11, Example 12
[1] = test system: artificial biofilm of P. aeruginosa; assay: Antimicrobial effect on artificial biofilm (2% alginate solution); type: cell-based, Pseudomonas aeruginosa; conditions: Biofilm (2% alginate) + ionic strength (1 M NaCl), 4 hours at 37° C., control 2,000,000, Example 21
Protocol: Work consisted of incubating bacterial populations of a known load in terms of CFU/mL with the compounds mentioned in different molar concentrations. In vitro test batteries were organized at different doses or concentrations and in 1.5 mL Eppendorf tubes without the addition of culture medium. To this purpose, a PBS 100 mM phosphate buffer was used to maintain physiological conditions throughout the period of each test at 37° C. […] Each plate was added with 5 uL of a solution of 2,3,5-metabolic dye triphenyltetrazolium of chloride (TTC) 1% to enhance the contrast of colonies. Plates were incubated in inverted position, in a culture stove for 24-48 hours at 37° C. and subsequently the direct count was done, adjusted by dilution factors and seeding to report results in terms of CFU/mL. […] Treatments lasted 4 hours at 37° C.

SMILES: CC(C)Cc1ccc(C(C)C(=O)O)cc1.[Na] (stereo not shown) [IBU-Na, SODIUM IBUPROFEN]
- P. aeruginosa count (UFC/mL ± 10) As a function of treatment time (P. aeruginosa; IBU-Na 2.5 mM, 1 hour): 2,000,000 UFC/mL
- P. aeruginosa count (UFC/mL ± 10) As a function of treatment time (P. aeruginosa; IBU-Na 2.5 mM, Overnight (O.N.)): 2,000,000 UFC/mL
- P. aeruginosa (UFC/mL ± 10) (P. aeruginosa; IBU-Na 5 mM + ClNa (1M), 1 hour, 37° C. pH 6.5, control 800,000, Example 13): 16,000 UFC/mL
- P. aeruginosa (UFC/mL ± 10) (P. aeruginosa; IBU-Na 5 mM + ClNa (1M), 2 hours, 37° C. pH 6.5, control 800,000, Example 13): 13,000 UFC/mL
- P. aeruginosa (UFC/mL ± 10) (P. aeruginosa; IBU-Na 5 mM + ClNa (1M), 4 hours, 37° C. pH 6.5, control 800,000, Example 13): 8,500 UFC/mL
- Colony count (UFC/mL ± 10) Pseudomonas (P. aeruginosa; IBU-Na 5 mM, 4 hours at 37° C., control 1,700,000): 1,700,000 UFC/mL
- P. aeruginosa (UFC/mL ± 10) (P. aeruginosa; IBU-Na 5 mM, Population A (control 200,000), 4 h at 37° C., Example 5): 150,000 UFC/mL
- P. aeruginosa (UFC/mL ± 10) (P. aeruginosa; IBU-Na 5 mM, Population B (control 20,000), 4 h at 37° C., Example 5): 17,000 UFC/mL
- P. aeruginosa (UFC/mL ± 10) (P. aeruginosa; IBU-Na 10 mM + ClNa (1M), 1 hour, 37° C. pH 6.5, control 800,000, Example 13): 30 UFC/mL
- P. aeruginosa (UFC/mL ± 10) (P. aeruginosa; IBU-Na 10 mM + ClNa (1M), 2 hours, 37° C. pH 6.5, control 800,000, Example 13): 30 UFC/mL
- Colony count (UFC/mL ± 10) Pseudomonas (P. aeruginosa; IBU-Na 10 mM, 4 hours at 37° C., control 1,700,000): 760,000 UFC/mL
- P. aeruginosa count (UFC/mL ± 10) As a function of treatment time (P. aeruginosa; IBU-Na 10 mM, Overnight (O.N.)): 900,000 UFC/mL
- P. aeruginosa (UFC/mL ± 10) (P. aeruginosa; IBU-Na 10 mM, Population B (control 20,000), 4 h at 37° C., Example 5): 3,500 UFC/mL
- P. aeruginosa (UFC/mL ± 10) (P. aeruginosa; IBU-Na 10 mM, Population C (control 2,000), 4 h at 37° C., Example 5): 800 UFC/mL
- P. aeruginosa (UFC/mL ± 10) (P. aeruginosa; IBU-Na 10 mM, Without ionic strength, 4 hours at 37° C., control 1,700,000, Example 12): 760,000 UFC/mL
- Colony count (UFC/mL ± 10) P. aeruginosa (P. aeruginosa; IBU-Na 12.5 mM + ClNa (1M)): 250 UFC/mL
- P. aeruginosa (UFC/mL ± 10) (P. aeruginosa; IBU-Na 20 mM, Population A (control 200,000), 4 h at 37° C., Example 5): 20,000 UFC/mL
- P. aeruginosa (UFC/mL ± 10) (P. aeruginosa; IBU-Na 20 mM, Population B (control 20,000), 4 h at 37° C., Example 5): 400 UFC/mL
- P. aeruginosa (UFC/mL ± 10) (P. aeruginosa; IBU-Na 20 mM, Population C (control 2,000), 4 h at 37° C., Example 5): 50 UFC/mL
- Colony count (UFC/mL ± 10) P. aeruginosa (P. aeruginosa; IBU-Na 25 mM + ClNa (1M)): 10 UFC/mL
- P. aeruginosa count (UFC/mL ± 10) As a function of treatment time (P. aeruginosa; IBU-Na 25 mM, 1 hour): 500,000 UFC/mL
- Colony count (UFC/mL ± 10) Pseudomonas (P. aeruginosa; IBU-Na 25 mM, 4 hours at 37° C., control 1,700,000): 200,000 UFC/mL
- P. aeruginosa count (UFC/mL ± 10) As a function of treatment time (P. aeruginosa; IBU-Na 25 mM, 4 hours): 250,000 UFC/mL
- P. aeruginosa (UFC/mL ± 10) (P. aeruginosa; IBU-Na 25 mM, Without ionic strength, 4 hours at 37° C., control 1,700,000, Example 12): 200,000 UFC/mL
- P. aeruginosa (UFC/mL ± 10) (P. aeruginosa; IBU-Na 30 mM, Population A (control 200,000), 4 h at 37° C., Example 5): 500 UFC/mL
- P. aeruginosa (UFC/mL ± 10) (P. aeruginosa; IBU-Na 30 mM, Population B (control 20,000), 4 h at 37° C., Example 5): 40 UFC/mL
- P. aeruginosa (UFC/mL ± 10) (P. aeruginosa; IBU-Na 40 mM, Population A (control 200,000), 4 h at 37° C., Example 5): 100 UFC/mL
- Colony count (UFC/mL ± 10) P. aeruginosa (P. aeruginosa; IBU-Na 50 mM + ClNa (1M)): 10 UFC/mL
- Colony count (UFC/mL ± 10) (P. aeruginosa; IBU-Na 50 mM): 100 UFC/mL
- Colony count (UFC/mL ± 10) Pseudomonas (P. aeruginosa; IBU-Na 50 mM, 4 hours at 37° C., control 1,700,000): 100 UFC/mL
- P. aeruginosa count (UFC/mL ± 10) As a function of treatment time (P. aeruginosa; IBU-Na 50 mM, 4 hours): 30 UFC/mL
- P. aeruginosa (UFC/mL ± 10) (P. aeruginosa; IBU-Na 50 mM, Without ionic strength, 4 hours at 37° C., control 1,700,000, Example 12): 100 UFC/mL
- P. aeruginosa (UFC/mL ± 10) (P. aeruginosa; IBU-Na 50 mM, pH 7.8, 4 h at 37°, control 200,000, Example 7): 600 UFC/mL
- Colony count (UFC/mL ± 10) (P. aeruginosa; IBU-Na 100 mM): 10 UFC/mL
- P. aeruginosa count (UFC/mL ± 10) As a function of treatment time (P. aeruginosa; IBU-Na 100 mM, 1 hour): 2,000 UFC/mL
- Colony count (UFC/mL ± 10) Pseudomonas (P. aeruginosa; IBU-Na 100 mM, 4 hours at 37° C., control 1,700,000): 10 UFC/mL
- concentration at which the number of CFU/mL decreases to 1000 (P. aeruginosa; with ionic strength of NaCl 1 M, 4 hours at 37° C.): about 5 mM
- concentration at which the number of CFU/mL decreases to 1000 (P. aeruginosa; without ionic strength, 4 hours at 37° C.): 25 mM
- P. aeruginosa (UFC/mL ± 10) ([1]; 10 mM): 25,000 UFC/mL
- P. aeruginosa (UFC/mL ± 10) ([1]; 25 mM): 200 UFC/mL
